Results on two compounds are retold here after patent US11154569B2, “Ruthenium μ-nitrido complexes and their use as calcium uptake inhibitors” (CORNELL UNIVERSITY, priority 2018, dated 2021).

By solubility is commonly meant the concentration that dissolves in the medium under given conditions. Read a low solubility as little dissolved substance.

Data set [1] relates to neonatal rat ventricular myocytes (NRVMs). As to the kind of experiment: Hypoxia/reoxygenation injury in neonatal rat ventricular myocytes (ΔΨm and mCa2+ uptake). Type of data set: cell-based. The note with it: 50 μM, 16 hours hypoxia, 8 hours reoxygenation. How it is done: Freshly isolated NRVMs were subjected to 16 hours of hypoxia (5% O2-5% CO2) followed by 8 hours of reoxygenation (20% O2-5% CO2). To study the protective effect of C-2, HIR was induced in NRVMs pretreated with or without C-2 (50 μM).
An equal number of NRVMs (6×10^6 cells) were washed in Ca^2+ free PBS, pH 7.4, resuspended and permeabilized with 40 μg/ml digitonin in 1.5 mL of intracellular medium (ICM) composed of 120 mM KCl, 10 mM NaCl, 1 mM KH2PO4, 20 mM Hepes-Tris, pH 7.2 and 2 μM thapsigargin to block the SERCA pump. All measurements were performed in the presence of 2 mM succinate. The simultaneous measurement of mitochondrial membrane potential (ΔΨm) and extra-mitochondrial Ca^2+([Ca^2+]) clearance were measured as above by using the JC-1 and Fura2-FF dyes. A series of extra-mitochondrial Ca^2+ bolus (10 μM) was added and mitochondrial uncoupler, CCCP (2 μM), were added at the indicated time points. All the experiments were performed at 37° C. with constant stirring.
Given the Ca^2+ uptake inhibiting properties and low toxicity of C-2, C-2 was studied for its possible ability to protect cardiomyocytes from the mCa^2+ overload that occurs during hypoxia/reoxygenation (I-H/R) injury and prevent mPTP opening and mitochondrial swelling. Freshly isolated neonatal rat ventricular myocytes (NRVMs) treated with C-2 (50 μM) were subjected to 16 hours of hypoxia (1% O2-5% CO2), followed by 8 hours of reoxygenation (21% O2-5% CO2). Untreated NRVMs served as controls. After H/R injury, NRVMs were permeabilized and loaded with the JC-1 and Fura-FF to simultaneously measure ΔΨm and mCa^2+ uptake.

A short description of the next data set: MTT cytotoxicity assay. It is filed as cell-based, human. As to conditions: human; HEK293 cells, 72 hours incubation; read-out: IC50 (cytotoxicity, MTT). How it is done:
HEK293 (human embryonic kidney cells were obtained from American Type Culture Collection (ATCC, Washington D.C.) and cultured as adherent monolayers in a humidified 5% CO2 atmosphere at 37° C. in Minimum Essential Media supplemented with 10% fetal bovine serum (FBS) and 100 U/mL penicillin/streptomycin. HeLa cells were cultured in Dulbecco's Modified Eagle's Medium (DMEM) supplemented with 10% FBS and 100 U/mL penicillin/streptomycin. Cells were checked for contamination monthly using the PlasmoTest™ mycoplasma detection kit. Ventricular cardiomyocytes were isolated from neonatal rats (NRVMs) as previously described (H. M. Piper et al., Piper H. M. (eds), Cell Culture Techniques in Heart and Vessel Research, Springer Verlag: Berlin, 1990). The isolated myocytes were cultured in Ham's F-10 supplemented with 5%/o fetal bovine serum (FBS) and penicillin/streptomycin (100 U/ml) at 37° C. in a 95% air/5% CO2 humidified atmosphere for four days
Cells were seeded at 4000 cells/well in 100 μL/well in a 96-well plate and incubated for 24 hours. The media was removed and replaced with 200 μL of growth media containing varying concentrations of the complex. After 72 hours of incubation, the media was replaced with MEM containing 1 mg/mL of (4,5-dimethylthiazol-2-yl)-2,5-diepheyltetrazolium bromide (MTT). After four hours incubation, the media was removed and the purple formazan crystals were solubilized using 100 μL of a 8/1 DMSO/glycine buffer (pH 10) mixture. The absorbance at 570 nm was measured using a plate reader.
With the new nitrido-bridged ruthenium compounds C-2 and C-3 prepared, MCU-inhibitory properties of these compounds were evaluated and their activities compared to C-1, the oxo-bridged Ru360 analogue of the conventional art (S. R. Nathan et al., Inorg. Chem. 2017, 56, 3123-3126 and S. R. Nathan et al., J. Vis. Exp. 2017, 56527). The cytotoxicity of the complexes in HEK293 cells was first measured using the colorimetric thiazolyl blue tetrazolium bromide (MTT) assay, as well known in the art. […]
Background: Tetrazolium dyes change colour on reduction, which living cells bring about.

The next data set concerns HEK293 cells. Briefly: Whole cell uptake of ruthenium (GFAAS) in HEK293 cells. It is filed as cell-based, human. The note with it: 50 μM, 24 hours. How it is done: HEK293 cells were grown to near confluence in 75 cm^2 dishes. […] The cells were then treated with culture media containing 50 μM of the complex and incubated at 37° C. for 24 hours. The cells were washed with 1 mL of PBS and harvested using 0.05% trypsin. The cells were pelleted by centrifugation, re-suspended in 1 mL of PBS, and pelleted again. The washing and pelleting step was repeated a total of three times, after which the supernatant was removed and the cells were suspended in 500 μL of lysis buffer containing 1% w/v 3-[3-cholamidopropyl)dimethylammonio]-1-propanesulfonate) (CHAPS), 5 mM ethylenediamine tetraacetic acid (EDTA), and 50 mM tris(hydroxymethyl)aminomethane (Tris) and 100 mM NaCl (pH=7.4). The suspension was vortexed for 30 seconds and incubated on ice for 45 minutes. Control cells not treated with the complexes were handled identically to the treated cells to correct for ruthenium present in the cells, and control dishes were incubated with the complex in the absence of cells to correct for non-specific adsorption of ruthenium to the plastic. If needed, samples were stored in −80° C. until analysis. Ruthenium and protein content of the lysates were determined as described above.

In data set [2] the test system is HeLa cells. As to the kind of experiment: Whole cell uptake of ruthenium (GFAAS) in HeLa cells. It is filed as cell-based. The note with it: 50 μM, 24 hours.
The nature of a further data set: Water solubility. Type of data set: physicochemical.
Data set [3] relates to HeLa cells. Briefly: Mitochondrial accumulation of ruthenium in HeLa cells (mitochondrial isolation, GFAAS). The note with it: 50 μM, 24 hours.
Experimental: Approximately 1×10^6 HeLa cells were seeded in 75 cm^2 dishes and allowed to adhere overnight. The following day, the cell culture media was removed, and the cells were washed with 3 mL of PBS before treatment with media containing 50 μM of the complex. After 24 hours, the culture media was removed, and the cell monolayer was washed with 3 mL of PBS before the cells were harvested by trypsinization. The cell suspension was centrifuged, and the resulting pellet was resuspended in 3 ml, of PBS and centrifuged again to remove extracellular ruthenium. This washing step was repeated a total of three times. […] The ruthenium concentration in each sample was determined by GFAAS and was normalized to the protein content of the lysate, which was determined using the Bicinchoninic Acid Protein Assay Kit. […] Results were calculated as the mass ratio of total ruthenium to protein (pg/μg) in each sample±standard deviation of three independent trials. […]
To determine the abilities of the complexes to accumulate in the mitochondria, HeLa cells were treated with C-1, C-2 or C-3 (50 μM) in culture media for 24 hours, and the mitochondria were isolated following modified literature procedures (e.g., A. C. Komor et al., J. Am Chem. Soc. 2012, 134, 19223-19233). Both the mitochondrial and extramitochondrial fractions were analyzed for ruthenium content.

Molecules are shown by their SMILES.

For the compound `N.N.N.N.N.N.N.N.O=C[O-].O=C[O-].[O-2].[Ru+3].[Ru+4]` [Ru360, reference compound], the “ΔΨm after H/R injury” value in data set [1] is on record as “did not prevent H/R-mediated ΔΨm dissipation”.

For `N.N.N.N.N.N.N.N.[Cl-].[Cl-].[N-3].[Ru+4].[Ru+4]` [C-2, [Ru2(μ-N)(NH3)8Cl2]Cl3], in “MTT cytotoxicity assay”, the CC50 at 72 h was found to be 195 ± 8 µM. Moreover, in the data set with HEK293 cells, the “cellular uptake relative to C-1” value is listed as 10 times and the “cellular uptake relative to C-3” value is given as “over twice as effectively as C-3”. Also, in the data set on HeLa cells [2], the “cellular uptake relative to C-1 and C-3” value was “twice as effectively as C-1 and C-3”. Besides, in data set [1], the “mCa2+ uptake after H/R injury” value is listed as “complete ablation of mCa^2+ uptake” and the “ΔΨm after H/R injury” value is given as “no loss of ΔΨm”. Besides, the concentration in solution in “Water solubility” (solubility) came to 1000 µg/mL. Further, in the data set on HeLa cells [3], the “concentration in the mitochondria compared to C-1 and C-3” value is on record as “greater than three-fold higher concentrations”.
